One compound from PMC4100786 (Biochemistry, 2014) can be followed below.

This assay addresses ISWI (Xenopus laevis, UniProt Q9DF71). It is filed as binding.

Sequence of ISWI (Q9DF71 1-1046): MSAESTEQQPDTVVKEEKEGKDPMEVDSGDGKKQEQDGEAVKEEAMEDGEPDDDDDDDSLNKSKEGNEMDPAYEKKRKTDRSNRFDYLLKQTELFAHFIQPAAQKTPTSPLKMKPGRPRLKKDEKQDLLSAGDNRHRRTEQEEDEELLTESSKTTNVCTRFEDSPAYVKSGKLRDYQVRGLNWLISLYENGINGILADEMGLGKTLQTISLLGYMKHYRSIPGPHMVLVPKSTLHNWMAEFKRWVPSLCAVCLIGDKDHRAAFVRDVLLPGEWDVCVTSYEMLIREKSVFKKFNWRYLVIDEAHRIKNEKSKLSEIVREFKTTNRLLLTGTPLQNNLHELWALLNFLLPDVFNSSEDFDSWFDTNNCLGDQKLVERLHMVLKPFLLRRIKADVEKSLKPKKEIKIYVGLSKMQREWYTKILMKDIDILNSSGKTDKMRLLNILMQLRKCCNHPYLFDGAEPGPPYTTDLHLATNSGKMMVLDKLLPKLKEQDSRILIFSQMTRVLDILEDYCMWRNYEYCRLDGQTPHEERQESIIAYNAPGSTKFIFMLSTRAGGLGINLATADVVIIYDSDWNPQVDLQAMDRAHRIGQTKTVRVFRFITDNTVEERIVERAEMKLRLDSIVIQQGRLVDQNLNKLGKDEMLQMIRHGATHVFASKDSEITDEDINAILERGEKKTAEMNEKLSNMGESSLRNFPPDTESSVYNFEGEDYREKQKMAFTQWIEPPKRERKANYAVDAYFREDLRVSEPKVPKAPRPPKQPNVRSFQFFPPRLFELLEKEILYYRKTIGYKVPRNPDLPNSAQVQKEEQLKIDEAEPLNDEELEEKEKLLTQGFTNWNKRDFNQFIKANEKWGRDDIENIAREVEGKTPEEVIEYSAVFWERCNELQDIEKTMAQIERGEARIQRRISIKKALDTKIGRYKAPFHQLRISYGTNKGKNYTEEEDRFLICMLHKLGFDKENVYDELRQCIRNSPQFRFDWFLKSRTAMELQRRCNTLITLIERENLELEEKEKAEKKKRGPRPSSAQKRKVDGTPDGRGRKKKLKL

In general, Kd refers to the equilibrium constant for the complex coming apart. In turn, `Nc1ncnc2c1ncn2[C@@H]1O[C@H](CO[P@](=O)(O)O[P@](=O)(O)O[P@@](=O)(O)S)[C@@H](O)[C@H]1O` [ATP-γ-S] gave a Kd of 140 ± 30 µM.
